According to US20170285002A1, “METHOD FOR RECONSTITUTING TUMOR WITH MICROENVIRONMENT” (Public University Corporation Yokohama City University, priority 2016, published 2017):

How the values were obtained:
[1] = tested on: luciferase gene-transfected human pancreatic cancer cell line; test: In vitro drug sensitivity of pancreatic cancer organoid versus plane-cultured cells (luciferase activity); assay type: cell-based
Protocol: In each graph, the ordinate depicts the amount of luciferase activity of the pancreatic cancer cells, and the abscissa depicts an anti-cancer drug (gemcitabine, nab-paclitaxel, or 5-FU) concentration in a medium. […] Among the pancreatic cancer organoids, cancer organoids with rich-stroma show lower sensitivity to anticancer drugs.
(§1) Each pre-existing human pancreatic cancer cell line was inoculated at 5×10^3 cells/well on a 96-well plate, and gemcitabine (10^−12 to 10^−3 M) was added thereto 24 hours later. Nuclear staining was performed 72 hours after the gemcitabine addition. A cell number was measured using IN Cell Analyzer 2000, and an IC50 value was calculated. In order to specifically detect cancer cells within an organoid and calculate a cancer cell number, luciferase gene-transfected cancer cells were established and used in analysis. A cancer organoid was formed from the luciferase gene-transfected cancer cells, and luminescence was measured in the presence of a luminescent substrate (e.g., Luciferase Assay System from Promega Corp.) to evaluate the number of cancer cells present.
On the other hand, for the large-scale preparation of pancreatic cancer cell organoids having a uniform size, human pancreatic cancer cells, HUVECs, and hMSCs were cocultured using a three-dimensional culture vessel (e.g., ELPLASIA plate from Kuraray Co., Ltd.) to reconstitute a human pancreatic cancer cell line organoid. The pancreatic cancer cells of each line were inoculated at 1×10^4 cells on each well of a 96-well plate which was also inoculated with arbitrary numbers of HUVECs and hMSCs to reconstitute a cancer organoid. The mixing ratio of the cancer cells, HUVECs, and hMSCs was set to 10:0:0, 10:7:1, 10:7:20, 10:7:0, or 10:0:20.
In order to evaluate the drug sensitivity of cancer cells with high accuracy, an approach for quantitatively evaluating only the number of cancer cells within a cancer organoid was studied (FIG. 14). Luciferase gene-transfected cancer cells (CFPAC-1, PANC-1, or CAPAN-2; typically, CFPAC-1) were established, and a cancer organoid was reconstituted. Then, a luminescent substrate was added thereto, and the luminescence intensity of each well was measured using a luminescence plate reader. The luciferase gene-transfected cancer cells were inoculated at various cell numbers onto a multi-well plate, followed by luciferase assay. As a result, the luminescence intensity was confirmed to be proportional to the cell number (FIG. 15). […]
A pancreatic cancer organoid was reconstituted from luciferase gene-transfected pancreatic cancer cells and stromal cells and evaluated for its sensitivity for a pancreatic cancer therapeutic (anti-cancer drug) (FIG. 17). […]

[2] = tested on: CFPAC-1; test: In vitro drug sensitivity of pre-existing human pancreatic cancer cell line (surviving cell number, IC50); assay type: cell-based; conditions: cells surviving 72 hours after addition
Protocol: (§2) 8000 cells of human pancreatic cancer cell line were seeded in each well of a 96-well plate, and gemcitabine was added at 24 hours. At 72 hours, the number of viable cells was measured and summarized in a graph. The pancreatic cancer cells of each line were subcutaneously transplanted to NOD/Scid mice. Gemcitabine was intraperitoneally administered at 100 mg/kg from the point in time when the tumor volume reached 100 mm^3. Change in tumor size after the gemcitabine administration was evaluated. The discrepancy between the in vitro anti-cancer drug sensitivity and the in vivo anti-cancer drug sensitivity was confirmed.
as §1
(§3) The in vitro drug sensitivity of a pre-existing human pancreatic cancer cell line CFPAC-1, PANC-1, or SW1990 was evaluated. 10^−12 to 10^−3M GEM was added to the cells cultured for 24 hours, and IC50 was calculated from the number of cells surviving 72 hours after the addition. As a result, IC50 of CFPAC-1, PANC-1, or SW1990 was 0.03 μM, 0.7 μM, or 0.2 μM, respectively (upper panels of FIG. 1). On the other hand, the cancer cells were subcutaneously transplanted to NOD/Scid mice, and the xenograft formed was evaluated for its in vivo drug sensitivity by the administration of GEM at 100 mg/kg.

[3] = tested on: PANC-1; test: as above; assay type: cell-based; conditions: cells surviving 72 hours after addition
Protocol: as §2, §1, §3

[4] = tested on: SW1990; test: as above; assay type: cell-based; conditions: cells surviving 72 hours after addition
Protocol: as §2, §1, §3

[5] = tested on: CFPAC-1 xenograft; test: In vivo drug sensitivity of subcutaneous cell line xenograft; design: species or system NOD/Scid mice; conditions: 100 mg/kg intraperitoneal
Protocol: as §2, with “evaluated.” for “evaluated. The discrepancy between the in vitro anti-cancer drug sensitivity and the in vivo anti-cancer drug sensitivity was confirmed.”
(§4) Each pre-existing human pancreatic cancer cell line was subcutaneously transplanted at 1×10^6 cells to each of 4- to 10-week old female immunodeficient mice (NOD/Scid mice) to prepare a xenograft. The number of xenografts formed and the volume of each xenograft were measured over time. The volume was calculated according to (minor axis×minor axis×major axis/2) mm^3. The intraperitoneal administration of gemcitabine was started from the point in time when the volume of the xenograft formed exceeded 100 mm^3. The dose concentration of gemcitabine was set to 100 mg/kg, 0 mg/kg, 5 mg/kg, or 10 mg/kg, and gemcitabine was administered once every three days for 3 weeks. Then, the xenograft was resected.
(§5) The in vitro drug sensitivity of a pre-existing human pancreatic cancer cell line CFPAC-1, PANC-1, or SW1990 was evaluated. 10^−12 to 10^−3M GEM was added to the cells cultured for 24 hours, and IC50 was calculated from the number of cells surviving 72 hours after the addition.

[6] = tested on: PANC-1 xenograft; test: as above; design: species or system NOD/Scid mice; conditions: 100 mg/kg intraperitoneal
Protocol: as §2, with “evaluated.” for “evaluated. The discrepancy between the in vitro anti-cancer drug sensitivity and the in vivo anti-cancer drug sensitivity was confirmed.”
as §4, §5

[7] = tested on: SW1990 xenograft; test: as above; design: species or system NOD/Scid mice; conditions: 100 mg/kg intraperitoneal
Protocol: as §2, with “evaluated.” for “evaluated. The discrepancy between the in vitro anti-cancer drug sensitivity and the in vivo anti-cancer drug sensitivity was confirmed.”
as §4, §5

[8] = tested on: pre-existing human pancreatic cancer cell line (CFPAC-1) organoid-derived xenograft; test: Drug sensitivity of human pancreatic cancer organoid-derived xenograft (tumor volume); assay type: in vivo, NOD/Scid mice; conditions: for xenograft regression: e.g. 10 mg/kg
Protocol: After transplantation of the human pancreatic cancer cells or the human pancreatic cancer cell organoid to immunodeficient mice (NOD/Scid), gemcitabine was administered thereto at 3-day intervals from the point in time when the tumor size exceeded 100 mm3. […] A xenograft was prepared by the subcutaneous transplantation of a human pancreatic cancer cell organoid. Then, the intraperitoneal administration of gemcitabine was started from the point in time when the volume of the xenograft exceeded 100 mm^3. The dose concentration of gemcitabine was set to 0 mg/kg, 5 mg/kg, or 10 mg/kg, and the administration frequency and period were set to once every three days for 3 weeks. The volume of the xenograft was measured at appropriate times. […] The in vivo drug sensitivity of a xenograft reconstituted after transplantation of each organoid was evaluated using a typical pancreatic cancer therapeutic Gemzar (gemcitabine: GEM). A pre-existing human pancreatic cancer cell line organoid prepared by the three-dimensional coculture of a pre-existing human pancreatic cancer cell line, HUVECs, and hMSCs was subcutaneously transplanted to NOD/Scid mice. Then, the administration of GEM (e.g., 10 mg/kg) was started from the point in time when the tumor volume exceeded 100 mm^3. A non-GEM-administration group (0 mg/kg) given only physiological saline was set as a control group. GEM was administered once every three days for 30 days with reference made to a treatment regimen for human pancreatic cancer. A xenograft was recovered at GEM administration day 30 and analyzed histologically.

[9] = tested on: CFPAC-1-derived cancer organoid xenograft; test: Tumor size after discontinuation of gemcitabine administration (recurrence); assay type: in vivo; conditions: 30 mg/kg for 30 days
Protocol: Whether a xenograft reconstituted from a cancer organoid could reproduce the recurrence of pancreatic cancer was studied. […] The right diagrams show a macro photograph of the xenograft in each period. […] After cancer organoid (CFPAC-1-derived) transplantation, gemcitabine was administered (30 mg/kg) for 30 days. Then, the gemcitabine administration was discontinued.

[10] = tested on: human lung cancer cell line (A549 cells); test: In vitro drug sensitivity of human lung cancer cell line organoid (luciferase activity); assay type: cell-based
Protocol: FIG. 29 A lung cancer organoid prepared three-dimensionally using a human lung cancer cell line (A549 cells) expressing luciferase gene and EGFP, as well as HUVECs and hMSCs, and a three-dimensional aggregate composed of only pancreatic cancer cells were evaluated for their in vitro drug sensitivity. The left diagrams show a fluorescence phase-contrast microscope image of the lung cancer organoid. In the graph of the right diagram, the ordinate depicts the amount of luciferase activity of the lung cancer cells, and the abscissa depicts an anti-cancer drug (gemcitabine) concentration in the medium. […] A pre-existing human lung cancer cell line (A549) was introduced from ATCC. In the present study, this cell line was introduced and then used at a passage number of 10 or less in experiments. The pre-existing human lung cancer cell line was transfected with luciferase gene in advance. The human lung cancer cell line, HUVECs, and hMSCs were inoculated onto a three-dimensional culture vessel ([…] plate from Kuraray Co., Ltd.) to reconstitute a human lung cancer cell line organoid. The human lung cancer cell line was inoculated at 3×10^3 cells on each well of a 96-well plate which was also inoculated with arbitrary numbers of HUVECs and hMSCs to reconstitute a cancer organoid. The mixing ratio of the cancer cells, HUVECs, and hMSCs was set to 10:0:0, 10:7:1 (Low hMSC), or 10:7:20 (High hMSC). A lung cancer organoid prepared three-dimensionally using a luciferase gene and EGFP expressing human lung cancer cell line (A549 cells), HUVECs, and hMSCs, and a three-dimensional aggregate composed of only pancreatic cancer cells were evaluated for their in vitro drug sensitivity. The left diagrams show a fluorescence phase-contrast microscope image of the lung cancer organoid. In the graph of the right diagram, the ordinate depicts the amount of luciferase activity of the lung cancer cells, and the abscissa depicts an anti-cancer drug (gemcitabine) concentration in a medium.

[11] = tested on: primary human pancreatic cancer cells; test: In vitro gemcitabine sensitivity of primary human pancreatic cancer organoid (luciferase); assay type: cell-based; conditions: primary pancreatic cancer organoid versus pancreatic cancer cyst; 72 hours
Protocol: Pancreatic cancer cells transfected with luciferase gene were used for experiments. […] The three-dimensional coculture method abides by the method for a pancreatic cancer organoid from a pancreatic cancer cell line. […] Luciferase gene-transfected primary human pancreatic cancer cells were established, and a primary pancreatic cancer organoid (pancreatic cancer cells: 2×10^4 cells) was reconstituted in vitro and then cultured for 72 hours in the presence of gemcitabine. Then, a luminescent substrate was added thereto, and the luminescence intensity of each organoid was measured using a luminescence plate reader and analyzed.

[12] = tested on: primary pancreatic cancer organoid xenograft; test: In vivo drug sensitivity of primary human pancreatic cancer organoid xenograft (tumor size); design: species or system immunodeficient mice; conditions: primary organoid transplantation group versus cyst transplantation group; once every three days
Protocol: FIG. 28 A primary cancer organoid was prepared from a primary cancer cell line, and a xenograft was reconstituted in immunodeficient mice in vivo. […] A primary pancreatic cancer organoid (pancreatic cancer cells: 2×10^5 cells) was reconstituted in vitro and then transplanted to immunodeficient mice. […] Gemcitabine was administered thereto once every three days from the point in time when a xenograft reached 100 mm^3.

[13] = tested on: primary pancreatic cancer organoid; test: Drug sensitivity of primary human pancreatic cancer organoid versus patient prognosis (luciferase activity); assay type: cell-based; conditions: organoid from patient having postoperative recurrence; 72 hours
Protocol: Pancreatic cancer cells were separated from a surgically resected preparation of each pancreatic cancer patient and expanded culture was performed by the cyst culture method to obtain primary human pancreatic cancer cells. […] The obtained primary human pancreatic cancer cells were three-dimensionally cocultured with stromal cells (vascular endothelial cells (HUVECs, etc.) and mesenchymal cells (hMSCs, etc.)) to reconstitute a primary pancreatic cancer organoid. Its drug sensitivity was evaluated. The mixing ratio of these cells at the time of primary pancreatic cancer organoid preparation was 10:7:20. The number of specimens was 2. Primary pancreatic cancer cells were separated from a surgically resected specimen of each pancreatic cancer patient (with or without postoperative recurrence), subjected to expanded culture, and then transfected with luciferase gene. Then, these cancer cells were three-dimensionally cocultured with stromal cells to reconstitute a primary pancreatic cancer organoid. The reconstituted human pancreatic cancer organoid was cultured for 72 hours in the presence of gemcitabine at respective concentrations, followed by luciferase activity measurement.

[14] = tested on: EGFP gene-transfected cancer cells (typically, CFPAC-1) organoid; test: Residual cells in cancer organoid cultured with anti-cancer drug; assay type: cell-based, human; conditions: 1 uM, 72 hours
Protocol: Residual cancer cells expressing GFP and mesenchymal cells expressing αSMA are observed even after anti-cancer drug (gemcitabine) administration. Increase in positive ratio of a cancer stem cell marker Sox9 was confirmed in the residual cancer cells. The properties of cancer cells remaining after anti-cancer drug addition and stromal cells within a cancer organoid were evaluated. EGFP gene-transfected cancer cells (typically, CFPAC-1) were established, and a cancer organoid was reconstituted (the cancer cell:HUVEC:hMSC ratio is, for example, 10:7:10 to 10:7:20). Then, the cancer organoid was cultured for 72 hours in a medium containing 1 uM gemcitabine.

[15] = tested on: pancreatic cancer organoid-derived xenograft; test: Immunostaining of residual xenograft tissue after gemcitabine administration; assay type: in vivo, immunodeficient mice
Protocol: A paraffin section was deparaffinized, then dipped in a citrate buffer, and activated at 121° C. for 20 minutes. After washing with PBS containing 0.05% Tween 20 (PBST) for 5 minutes three times, a buffer for blocking (Dako Japan Co., Ltd.) was added to the section, and blocking reaction was performed at room temperature for 1 hour. Next, a primary antibody solution was added thereto and reacted overnight at 4° C. After the primary antibody (anti-EpCAM antibody, anti-αSMA antibody, anti-cytokeratin 7 (CK7) antibody, anti-CD31 antibody, or anti-laminin antibody) reaction, the section was washed with PBST for 5 minutes three times. A secondary antibody solution diluted with a buffer solution was added thereto and reacted at room temperature for 1 hour in the dark. After the secondary antibody reaction, the section was washed with PBST for 5 minutes three times and mounted on a glass slide using a mounting agent containing a DAPI staining solution (Wako Pure Chemical Industries, Ltd.). A pre-existing human pancreatic cancer cell line was transplanted at 2×10^5 cells to immunodeficient mice. After a xenograft reached 100 mm^3, gemcitabine was administered thereto once every three days. […] A pancreatic cancer cell line was transplanted to immunodeficient mice. Then, gemcitabine administration was started from the point in time when a xenograft reached 100 mm^3. […]

[16] = pancreatic cancer organoid (with HUVECs and hMSCs)
[17] = two-dimensionally cultured pancreatic cancer cells

## O=c1[nH]cc(F)c(=O)[nH]1 [5-FU]
[1]; [16]
  drug sensitivity (luciferase activity): lower drug sensitivity
[1]; [17]
  drug sensitivity (luciferase activity): high sensitivity

## Nc1ccn([C@@H]2O[C@H](CO)[C@@H](O)C2(F)F)c(=O)n1 [gemcitabine]
[2]
  IC50: 0.03 µM
[3]
  IC50: 0.7 µM
[4]
  IC50: 0.2 µM
[5]
  tumor regression: tumor regression was found
[6]
  tumor regression: tumor regression was found
[7]
  tumor regression: no tumor regression was found
[1]; [16]
  drug sensitivity (luciferase activity): lower drug sensitivity
[1]; [17]
  drug sensitivity (luciferase activity): high sensitivity
[8]; all transplantation groups, e.g. 10 mg/kg once every three days for 30 days, versus non-GEM group
  increase in xenograft volume: suppressed
[8]; organoid with hMSCs in a large number (High hMSC)
  xenograft regression: exhibited no regression and increased in volume
[8]; organoids of the other groups
  xenograft regression: exhibited regression
[9]; pancreatic cancer organoid transplantation group
  tumor size after discontinuation of administration: increased markedly
[9]; suspension transplantation group
  tumor size after discontinuation of administration: constant tumor size
[10]; High stroma group (hMSCs and HUVECs with high incidence)
  drug sensitivity (luciferase activity): even lower sensitivity
[10]; lung cancer cell aggregate
  drug sensitivity (luciferase activity): high sensitivity
[10]; organoid culture groups
  drug sensitivity (luciferase activity): lower drug sensitivity
[11]
  drug resistance (luminescence intensity): significantly high drug resistance
[12]
  drug resistance (tumor size): significantly high drug resistance
[13]
  drug sensitivity (luciferase activity): resistance
[14]
  residual cancer stem cells in organoid: GFP-positive and Sox9-positive cancer stem cells are confirmed to remain
[15]; cancer organoid transplantation group, administration day 30
  ABCG2-expressing pancreatic cancer cells after administration: Pancreatic cancer cells expressing ABCG2 are confirmed to remain
[15]; organoid-derived xenograft, 1 month after start of administration once every three days
  Ki67-positive cells after administration: high incidence of Ki67-positive cells
